Tested on: 186277-243-T-J2-PDC complex spheroid viability
Experiment: Anticancer human tumor 186277-243-T-J2-PDC patient-derived colon adenocarcinoma cell line growth inhibition [POLQ]
Settings: for IC50: curve of first compound; for viability, T/C: stronger effect = lower value
Method in brief: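 Growth inhibition in 3D: complex spheroids (tumor PDC, HUVEC, MSC) treated with POLQ inhibitor combinations; where Cmax unknown, highest tested concentration 10 microM, except SN-38 at 1 microM.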

[1] = second compound 0.0316 µM, first compound 0.0316 µM
[2] = second compound 0.0316 µM, first compound 0.1 µM
[3] = second compound 0.1 µM, first compound 0.0316 µM
[4] = second compound 0.1 µM, first compound 0.1 µM
[5] = second compound 0.316 µM, first compound 0.0316 µM
[6] = second compound 0.316 µM, first compound 0.1 µM
[7] = second compound 1 µM, first compound 0.0316 µM
[8] = second compound 1 µM, first compound 0.1 µM
[9] = second compound 3.16 µM, first compound 0.0316 µM
[10] = second compound 3.16 µM, first compound 0.1 µM
[11] = second compound 10 µM, first compound 0.0316 µM
[12] = second compound 10 µM, first compound 0.1 µM
[13] = second compound 0.0316 µM, first compound 0.316 µM
[14] = second compound 0.0316 µM, first compound 1 µM
[15] = second compound 0.0316 µM, first compound 3.16 µM
[16] = second compound 0.0316 µM, first compound 10 µM
[17] = second compound 0.1 µM, first compound 0.316 µM
[18] = second compound 0.1 µM, first compound 1 µM
[19] = second compound 0.1 µM, first compound 3.16 µM
[20] = second compound 0.1 µM, first compound 10 µM
[21] = second compound 0.316 µM, first compound 0.316 µM
[22] = second compound 0.316 µM, first compound 1 µM
[23] = second compound 0.316 µM, first compound 3.16 µM
[24] = second compound 0.316 µM, first compound 10 µM
[25] = second compound 1 µM, first compound 0.316 µM
[26] = second compound 1 µM, first compound 1 µM
[27] = second compound 1 µM, first compound 3.16 µM
[28] = second compound 1 µM, first compound 10 µM
[29] = second compound 3.16 µM, first compound 0.316 µM
[30] = second compound 3.16 µM, first compound 1 µM
[31] = second compound 3.16 µM, first compound 3.16 µM
[32] = second compound 3.16 µM, first compound 10 µM
[33] = second compound 10 µM, first compound 0.316 µM
[34] = second compound 10 µM, first compound 1 µM
[35] = second compound 10 µM, first compound 3.16 µM
[36] = second compound 10 µM, first compound 10 µM
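Also: spheroids exposed to compounds for seven days.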
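For viability, T/C in this document: 100% = DMSO vehicle control viability.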

With Cn1ncnc1[C@H]1c2n[nH]c(=O)c3cc(F)cc(c23)N[C@@H]1c1ccc(F)cc1 + Cc1cccc(N(C)C(=O)C2C(O)CCN2c2nc(C)cc(C(F)(F)F)c2C#N)c1 the IC50 (second compound 0.0316 µM) was > 100 nM, the IC50 (second compound 0.1 µM) was > 100 nM and the IC50 (second compound 0.316 µM) was > 100 nM. For the same compound, the IC50 (second compound 1 µM) was > 100 nM, the IC50 (second compound 3.16 µM) was > 100 nM and the IC50 (second compound 10 µM) was > 100 nM. For the same compound, the viability, T/C (second compound 0.0316 µM, first compound 0.000316 µM) was 101%, the viability, T/C (second compound 0.0316 µM, first compound 0.001 µM) was 102% and the viability, T/C (second compound 0.0316 µM, first compound 0.00316 µM) was 104%. For the same compound, the viability, T/C (second compound 0.0316 µM, first compound 0.01 µM) was 106%, the viability, T/C [1] was 118% and the viability, T/C [2] was 120%. The viability, T/C (second compound 0.1 µM, first compound 0.000316 µM) was 87.9%, the viability, T/C (second compound 0.1 µM, first compound 0.001 µM) was 99.4% and the viability, T/C (second compound 0.1 µM, first compound 0.00316 µM) was 113%. It also gave a viability, T/C (second compound 0.1 µM, first compound 0.01 µM) of 106%, a viability, T/C [3] of 113% and a viability, T/C [4] of 119%. For the same compound, the viability, T/C (second compound 0.316 µM, first compound 0.000316 µM) was 90.3%, the viability, T/C (second compound 0.316 µM, first compound 0.001 µM) was 92.6% and the viability, T/C (second compound 0.316 µM, first compound 0.00316 µM) was 102%. For the same compound, the viability, T/C (second compound 0.316 µM, first compound 0.01 µM) was 115%, the viability, T/C [5] was 145% and the viability, T/C [6] was 122%. The viability, T/C (second compound 1 µM, first compound 0.000316 µM) was 89%, the viability, T/C (second compound 1 µM, first compound 0.001 µM) was 105% and the viability, T/C (second compound 1 µM, first compound 0.00316 µM) was 107%. For the same compound, the viability, T/C (second compound 1 µM, first compound 0.01 µM) was 117%, the viability, T/C [7] was 119% and the viability, T/C [8] was 111%. It also gave a viability, T/C (second compound 3.16 µM, first compound 0.000316 µM) of 101%, a viability, T/C (second compound 3.16 µM, first compound 0.001 µM) of 106% and a viability, T/C (second compound 3.16 µM, first compound 0.00316 µM) of 111%. For the same compound, the viability, T/C (second compound 3.16 µM, first compound 0.01 µM) was 113%, the viability, T/C [9] was 103% and the viability, T/C [10] was 105%. The viability, T/C (second compound 10 µM, first compound 0.000316 µM) was 99.5%, the viability, T/C (second compound 10 µM, first compound 0.001 µM) was 92.8% and the viability, T/C (second compound 10 µM, first compound 0.00316 µM) was 95.8%. For the same compound, the viability, T/C (second compound 10 µM, first compound 0.01 µM) was 116%, the viability, T/C [11] was 113% and the viability, T/C [12] was 113%.
C#Cc1c(F)ccc2cc(O)cc(-c3ncc4c(N5CC6CCC(C5)N6)nc(OCC56CCCN5CC(F)C6)nc4c3F)c12 (stereo unspecified) + COC1C(OC(N)=O)C(O)C(Oc2ccc3c(O)c(NC(=O)c4ccc(O)c(CC=C(C)C)c4)c(=O)oc3c2C)OC1(C)C was tested, and the IC50 (second compound 0.0316 µM) was 88.1 nM, the IC50 (second compound 0.1 µM) was 91.9 nM and the IC50 (second compound 0.316 µM) was 98 nM. It also gave an IC50 (second compound 1 µM) of 95.5 nM, an IC50 (second compound 3.16 µM) of 88.2 nM and an IC50 (second compound 10 µM) of 74.6 nM. For the same compound, the viability, T/C [1] was 78.8%, the viability, T/C [2] was 47.2% and the viability, T/C [13] was 17.3%. The viability, T/C [14] was 13.3%, the viability, T/C [15] was 5.89% and the viability, T/C [16] was 3.8%. It also gave a viability, T/C [3] of 73.6%, a viability, T/C [4] of 48.1% and a viability, T/C [17] of 24.4%. For the same compound, the viability, T/C [18] was 10.3%, the viability, T/C [19] was 8.42% and the viability, T/C [20] was 3.79%. It also gave a viability, T/C [5] of 87.3%, a viability, T/C [6] of 49.5% and a viability, T/C [21] of 21.1%. It also gave a viability, T/C [22] of 9.93%, a viability, T/C [23] of 5.5% and a viability, T/C [24] of 3.94%. For the same compound, the viability, T/C [7] was 92.4%, the viability, T/C [8] was 48.4% and the viability, T/C [25] was 15.6%. For the same compound, the viability, T/C [26] was 8.5%, the viability, T/C [27] was 5.97% and the viability, T/C [28] was 3.63%. It also gave a viability, T/C [9] of 73.6%, a viability, T/C [10] of 47.1% and a viability, T/C [29] of 19.5%. The viability, T/C [30] was 7.53%, the viability, T/C [31] was 5.69% and the viability, T/C [32] was 3.42%. It also gave a viability, T/C [11] of 74.3%, a viability, T/C [12] of 42% and a viability, T/C [33] of 18%. For the same compound, the viability, T/C [34] was 9.65%, the viability, T/C [35] was 8.31% and the viability, T/C [36] was 3.67%.
For COc1cc2cc(C(=O)CCC(=O)O)sc2cc1OC + COC1C(OC(N)=O)C(O)C(Oc2ccc3c(O)c(NC(=O)c4ccc(O)c(CC=C(C)C)c4)c(=O)oc3c2C)OC1(C)C, the IC50 (second compound 0.0316 µM) was > 10000 nM, the IC50 (second compound 0.1 µM) was > 10000 nM and the IC50 (second compound 0.316 µM) was > 10000 nM. The IC50 (second compound 1 µM) was > 10000 nM, the IC50 (second compound 3.16 µM) was > 10000 nM and the IC50 (second compound 10 µM) was > 10000 nM. It also gave a viability, T/C [1] of 110%, a viability, T/C [2] of 99.3% and a viability, T/C [13] of 101%. For the same compound, the viability, T/C [14] was 99.2%, the viability, T/C [15] was 106% and the viability, T/C [16] was 96.6%. For the same compound, the viability, T/C [3] was 98.3%, the viability, T/C [4] was 88% and the viability, T/C [17] was 103%. The viability, T/C [18] was 101%, the viability, T/C [19] was 103% and the viability, T/C [20] was 103%. The viability, T/C [5] was 102%, the viability, T/C [6] was 102% and the viability, T/C [21] was 93.6%. The viability, T/C [22] was 99.5%, the viability, T/C [23] was 98.1% and the viability, T/C [24] was 120%. The viability, T/C [7] was 111%, the viability, T/C [8] was 99.1% and the viability, T/C [25] was 109%. It also gave a viability, T/C [26] of 106%, a viability, T/C [27] of 110% and a viability, T/C [28] of 103%. It also gave a viability, T/C [9] of 89.5%, a viability, T/C [10] of 108% and a viability, T/C [29] of 100%. For the same compound, the viability, T/C [30] was 98.9%, the viability, T/C [31] was 105% and the viability, T/C [32] was 114%. For the same compound, the viability, T/C [11] was 106%, the viability, T/C [12] was 111% and the viability, T/C [33] was 110%. The viability, T/C [34] was 117%, the viability, T/C [35] was 105% and the viability, T/C [36] was 101%.
